Experimental data published in ChEMBL document CHEMBL1201862, “PubChem BioAssay data set” (2004).
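Cultured in 96-well plates, cells were exposed to test compound for 48 hours across five concentrations. GI50 = concentration required for 50% inhibition of growth.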 Activity calls are given as the source filed them. No stated cut-off is given here; in the data, active = GI50 up to about 1.1 µM and inactive = higher.

Key:
Experiment in all cases: NCI tumour cell line growth inhibition, 48 h
Hs-578T = system: Hs-578T
SK-MEL-5 = system: SK-MEL-5
SK-MEL-2 = system: SK-MEL-2
UACC-62 = system: UACC-62
SW-620 = system: SW-620
SF-268 = system: SF-268
MDA-N = system: MDA-N
TK-10 = system: TK-10
HOP-92 = system: HOP-92
SK-MEL-28 = system: SK-MEL-28
RPMI-8226 = system: RPMI-8226
SN12C = system: SN12C
BT-549 = system: BT-549
MOLT-4 = system: MOLT-4
MDA-MB-231 = system: MDA-MB-231
CCRF-CEM = system: CCRF-CEM
OVCAR-5 = system: OVCAR-5
NCI-H23 = system: NCI-H23
SK-OV-3 = system: SK-OV-3
OVCAR-8 = system: OVCAR-8
UO-31 = system: UO-31
SNB-19 = system: SNB-19
OVCAR-4 = system: OVCAR-4
COLO 205 = system: COLO 205
IGROV-1 = system: IGROV-1
LOX IMVI = system: LOX IMVI
MDA-MB-435 = system: MDA-MB-435
NCI-H460 = system: NCI-H460
EKVX = system: EKVX
MCF7 = system: MCF7
K562 = system: K562
OVCAR-3 = system: OVCAR-3
DU-145 = system: DU-145
SR = system: SR
SF-539 = system: SF-539
ACHN = system: ACHN
NCI-H226 = system: NCI-H226
CAKI-1 = system: CAKI-1
HT-29 = system: HT-29
A498 = system: A498
RXF 393 = system: RXF 393
HCT-116 = system: HCT-116
SF-295 = system: SF-295
SNB-75 = system: SNB-75
PC-3 = system: PC-3
HCC 2998 = system: HCC 2998
NCI/ADR-RES = system: NCI/ADR-RES
U-251 = system: U-251
A549 = system: A549
UACC-257 = system: UACC-257
HCT-15 = system: HCT-15
HOP-62 = system: HOP-62

Measured: GI50

COc1ccc(C2OC[C@H]3O[C@@H](OCc4ccccc4)[C@H](O)[C@@H](O)[C@@H]3O2)cc1 (some centres not stated)
inactive: Hs-578T 55.5 µM | SK-MEL-5 58.2 µM | SK-MEL-2 > 100 µM | UACC-62 > 100 µM | SW-620 > 100 µM | SF-268 > 100 µM | MDA-N > 100 µM | TK-10 > 100 µM | HOP-92 35.8 µM | SK-MEL-28 > 100 µM | RPMI-8226 76.9 µM | SN12C > 100 µM | BT-549 > 100 µM | MOLT-4 41.9 µM | MDA-MB-231 > 100 µM | CCRF-CEM 52.7 µM | OVCAR-5 > 100 µM | NCI-H23 > 100 µM | SK-OV-3 > 100 µM | OVCAR-8 > 100 µM | UO-31 > 100 µM | SNB-19 > 100 µM | OVCAR-4 84.5 µM | COLO 205 > 100 µM | IGROV-1 55 µM | LOX IMVI > 100 µM | MDA-MB-435 > 100 µM | NCI-H460 > 100 µM | EKVX 68.5 µM | MCF7 > 100 µM | K562 > 100 µM | OVCAR-3 > 100 µM | DU-145 > 100 µM | SR 67.9 µM | SF-539 > 100 µM | ACHN > 100 µM | NCI-H226 23.2 µM | CAKI-1 > 100 µM | HT-29 > 100 µM | A498 > 100 µM | RXF 393 > 100 µM | HCT-116 > 100 µM | SF-295 > 100 µM | SNB-75 2.29 µM | PC-3 99.8 µM | HCC 2998 > 100 µM | NCI/ADR-RES > 100 µM | U-251 > 100 µM | A549 > 100 µM | UACC-257 > 100 µM | HOP-62 > 100 µM
> 100 µM: HCT-15
